Test system: Respiratory Syncytial Virus
Assay: In vitro screening for activity against RSV (tetrazolium-based colorimetric assay, protection against viral cytopathology)
Format: cell-based
Conditions: Table 1; RSV in HeLa cells, MTT, seven days after infection; pEC50 = -log of EC50 in molar units
Text: The percent protection against cytopathology caused by viruses (antiviral activity or EC50) achieved by tested compounds and their cytotoxicity (CC50) are both calculated from dose-response curves. The selectivity of the antiviral effect is represented by the selectivity index (SI), calculated by dividing the CC50 (cytotoxic dose for 50% of the cells) by the EC50 (antiviral activity for 50% of the cells). The tables in the above experimental part list the category to which each of the prepared compounds belong: Compounds belonging to activity category “A” have a pEC50 (−log of EC50 when expressed in molar units) equal to or more than 7. Compounds belonging to activity category “B” have a pEC50 value between 6 and 7.
Automated tetrazolium-based colorimetric assays were used for determination of EC50 and CC50 of test compounds. Flat-bottom, 96-well plastic microtiter trays were filled with 180 μl of Eagle's Basal Medium, supplemented with 5% FCS (0% for FLU) and 20 mM Hepes buffer. Subsequently, stock solutions (7.8× final test concentration) of compounds were added in 45 μl volumes to a series of triplicate wells so as to allow simultaneous evaluation of their effects on virus- and mock-infected cells. Five five-fold dilutions were made directly in the microtiter trays using a robot system. Untreated virus controls, and HeLa cell controls were included in each test. Approximately 100 TCID50 of Respiratory Syncytial Virus was added to two of the three rows in a volume of 50 μl. The same volume of medium was added to the third row to measure the cytotoxicity of the compounds at the same concentrations as those used to measure the antiviral activity. After two hours of incubation, a suspension (4×10^5 cells/ml) of HeLa cells was added to all wells in a volume of 50 μl. The cultures were incubated at 37° C. in a 5% CO2 atmosphere. Seven days after infection the cytotoxicity and the antiviral activity was examined spectrophotometrically. To each well of the microtiter tray, 25 μl of a solution of MTT (3-(4,5-dimethylthiazol-2-yl)-2,5-diphenyltetrazolium bromide) was added. The trays were further incubated at 37° C. for 2 hours, after which the medium was removed from each cup. Solubilization of the formazan crystals was achieved by adding 100 μl 2-propanol. Complete dissolution of the formazan crystals were obtained after the trays have been placed on a plate shaker for 10 min. Finally, the absorbances were read in an eight-channel computer-controlled photometer (Multiskan MCC, Flow Laboratories) at two wavelengths (540 and 690 nm). The absorbance measured at 690 nm was automatically subtracted from the absorbance at 540 nm, so as to eliminate the effects of non-specific absorption.
The percent protection against cytopathology caused by viruses (antiviral activity or EC50) achieved by tested compounds and their cytotoxicity (CC50) were both calculated from dose-response curves. The selectivity of the antiviral effect is represented by the selectivity index (SI), calculated by dividing the CC50 (cytotoxic dose for 50% of the cells) by the EC50 (antiviral activity for 50% of the cells).

Q: How did the Activity turn out when Cc1ccc(O)c(Cn2c(N)nc3ccc(CNc4cccc(C)c4C)cc32)n1 [Compound 19] was run?
A: The Activity was 8.0.

Q: Cc1ccc(O)c(Cn2c(N)nc3ccc(CNc4ccccc4C(C)C)cc32)n1 [Compound 32] was tested. Which Activity did it give?
A: Its Activity is 7.8.

Q: CC(=O)c1ccccc1NCc1ccc2nc(N)n(Cc3nc(C)ccc3O)c2c1 [Compound 69] was tested. Which Activity did it give?
A: The Activity was 7.2.

Q: CCCCNS(=O)(=O)c1cccc(NCc2ccc3nc(N)n(Cc4nc(C)ccc4O)c3c2)c1 [Compound 47] was tested. Which Activity did it give?
A: Its Activity is 7.6.

Q: CC(=O)O.CCc1ccccc1NCc1ccc2nc(N)n(Cc3nc(C)ccc3O)c2c1 [Compound 12] was tested. Which Activity did it give?
A: Its Activity is 8.4.

Q: Which Activity does the source give for Cc1ccc(O)c(Cn2c(N)nc3ccc(CNc4ccccc4CCO)cc32)n1 [Compound 81] here?
A: The Activity was 9.4.

Q: COc1cc(NCc2ccc3nc(N)n(Cc4nc(C)ccc4O)c3c2)cc(C(F)(F)F)c1 [Compound 57] was tested. Which Activity did it give?
A: The Activity was 7.4.

Q: How did the Activity turn out when Cc1ccc(O)c(Cn2c(N)nc3ccc(CNc4cc(F)cc(C(F)(F)F)c4)cc32)n1 [Compound 45] was run?
A: The Activity was 7.6.

Q: Which Activity does the source give for Cc1ccc(O)c(Cn2c(N)nc3ccc(CNc4cc(Cl)cc(Cl)c4)cc32)n1 [Compound 2] here?
A: Its Activity is 8.6.

Q: Cc1ccc(O)c(Cn2c(N)nc3ccc(CNc4ccccc4C(C)(C)C)cc32)n1 [Compound 70] was tested. Which Activity did it give?
A: The Activity was 7.2.

Q: How did the Activity turn out when Cc1ccc(O)c(Cn2c(N)nc3ccc(CNc4ccc(S(N)(=O)=O)cc4)cc32)n1 [Compound 10] was run?
A: Its Activity is 8.4.

Q: For COc1ccc(NCc2ccc3nc(N)n(Cc4nc(C)ccc4O)c3c2)cc1F [Compound 28], which Activity is on record?
A: The Activity was 7.8.

Q: Cc1ccc(O)c(Cn2c(N)nc3ccc(CNc4cccc5cccnc45)cc32)n1 [Compound 44] was tested. Which Activity did it give?
A: The Activity was 7.6.

Q: Cc1ccc(O)c(Cn2c(N)nc3ccc(CNc4cccc(SC(F)(F)F)c4)cc32)n1 [Compound 30] was tested. Which Activity did it give?
A: Its Activity is 7.8.

Q: For Cc1ccc(O)c(Cn2c(N)nc3ccc(CNc4ccc(Br)cc4)cc32)n1 [Compound 54], which Activity is on record?
A: The Activity was 7.5.

Q: How did the Activity turn out when Cc1ccc(O)c(Cn2c(N)nc3ccc(CNc4ccc(C)c(C)c4)cc32)n1 [Compound 23] was run?
A: Its Activity is 7.9.

Same assay, conditions: Table 2; RSV in HeLa cells, MTT, seven days after infection; pEC50 = -log of EC50 in molar units

Q: How did the Activity turn out when Cc1cccc(NCc2ccc3c(c2)nc(N)n3Cc2nc(C)ccc2O)c1 [Compound 120] was run?
A: Its Activity is 6.4.

Same assay, conditions: Table 3; RSV in HeLa cells, MTT, seven days after infection; pEC50 = -log of EC50 in molar units

Q: How did the Activity turn out when Cc1ccc(O)c(Cn2c(N)nc3ccc(CN(Cc4ccccc4)c4ccccc4)cc32)n1 [Compound 133] was run?
A: Its Activity is 7.5.

Same assay, conditions: Table 4; RSV in HeLa cells, MTT, seven days after infection; pEC50 = -log of EC50 in molar units

Q: With CCc1cccc(NCc2ccc3ncn(Cc4nc(C)ccc4O)c3c2)c1 [Compound 187] as the compound, how does the Activity read?
A: Its Activity is 5.7.

Q: For Cc1cccc(N(CCO)Cc2ccc3ncn(Cc4nc(C)ccc4O)c3c2)c1 [Compound 193], which Activity is on record?
A: Its Activity is 6.3.

Q: Cc1ccc(CCO)c(NCc2ccc3ncn(Cc4nc(C)ccc4O)c3c2)c1 [Compound 192] was tested. Which Activity did it give?
A: The Activity was 7.8.

Same assay, conditions: Table 5b; RSV in HeLa cells, MTT, seven days after infection; pEC50 = -log of EC50 in molar units

Q: For Cc1ccc(CCCO)c(NCc2ccc3nc(N)n(Cc4nc(C)c(C)nc4C)c3c2)c1 [Compound 218], which Activity is on record?
A: The Activity was 6.1.

Q: Which Activity does the source give for Cc1ccc(CCCO)c(NCc2ccc3nc(N)n(Cc4cccc(Br)n4)c3c2)c1 [Compound 228] here?
A: Its Activity is less than 4.

Q: How did the Activity turn out when Cc1ccc(CCCO)c(NCc2ccc3nc(N)n(Cc4cccc(Br)n4)c3c2)c1 [Compound 212] was run?
A: Its Activity is 7.5.

Same assay, conditions: Table 6; numeric activity values, pEC50 (−log of EC50 in molar units)

Q: For Cc1ccc(O)c(Cn2cnc3cc(CNCc4ccco4)ccc32)n1 [Compound 271], which Activity is on record?
A: Its Activity is less than 4.0.

Q: Cc1ccc(O)c(Cn2cnc3cc(CNCCCc4ccccc4)ccc32)n1 [Compound 272] was tested. Which Activity did it give?
A: The Activity was less than 4.0.

Q: For Cc1ccc(O)c(Cn2cnc3cc(CNC4CCNCC4)ccc32)n1.Cl [Compound 262], which Activity is on record?
A: The Activity was less than 4.0.

Q: With Cc1ccc(O)c(Cn2cnc3cc(CO)ccc32)n1 [Compound 246] as the compound, how does the Activity read?
A: Its Activity is less than 4.0.

Q: How did the Activity turn out when Cc1ccc(O)c(Cn2cnc3cc(C=CC#N)ccc32)n1 [Compound 252] was run?
A: The Activity was less than 4.0.

Q: For Cc1ccc(O)c(Cn2cnc3cc(CNc4cccc(Br)c4)ccc32)n1 [Compound 287], which Activity is on record?
A: Its Activity is less than 4.0.

Q: Which Activity does the source give for Cc1ccc(O)c(Cn2cnc3ccc(CNc4ccccc4)cc32)n1 [Compound 285] here?
A: The Activity was less than 4.0.

Q: For Cc1ccc(O)c(Cn2cnc3ccc(CO)cc32)n1 [Compound 247], which Activity is on record?
A: The Activity was less than 4.0.

Same assay, conditions: human respiratory syncytial virus, 168 h; Table 5b; RSV in HeLa cells, MTT, seven days after infection; pEC50 = -log of EC50 in molar units; read-out: Activity (converted)

Q: For Nc1nc2ccc(CO)cc2n1Cc1cccc2cccnc12 [Compound 222, (2-amino-3-quinolin-8-ylmethyl-3H-benzoimidazol-5-yl)-methanol], which EC50 is on record?
A: Its EC50 is 39.8 µM.
